Our source for the IC50 values is BindingDB's records for doi:10.1021/jm00122a003 (Tanabe Seiyaku, 1989).

Test [1] has as its target Angiotensin-converting enzyme (Sus scrofa). The test can be described thus: Inhibitory activity on Angiotensin I converting enzyme (ACE) obtained from pig renal cortex and hippuryl-histidyl-leucine as substrate.
For test [2] the target is unchanged. Described as above. This is another data set of the same source.

As to `C[C@H](N[C@@H](CCc1ccccc1)C(=O)O)C(=O)N1C(=O)NC[C@H]1C(=O)O`, in test [1], half-maximal inhibition (IC50) required 3.5 nM. This lies in the single-digit nanomolar range.
Same read-out and setting: then `CCCCN1C[C@@H](C(=O)O)N(C(=O)[C@H](C)N[C@@H](CCc2ccccc2)C(=O)O)C1=O`, with 6.7 nM; and `C[C@@H](N[C@@H](CCc1ccccc1)C(=O)O)C(=O)N1C(=O)N(Cc2ccccc2)C[C@H]1C(=O)O`, with 2400 nM; and `CC(C)C[C@H](N[C@@H](C)C(=O)N1C(=O)N(Cc2ccccc2)C[C@H]1C(=O)O)C(=O)O`, with 2.1 nM.
Still for that read-out and setting: then `CC[C@H](N[C@@H](CCc1ccccc1)C(=O)O)C(=O)N1C(=O)N(Cc2ccccc2)C[C@H]1C(=O)O`, with 2.3 nM; and `CCCCCCCC[C@H](N[C@@H](C)C(=O)N1C(=O)N(Cc2ccccc2)C[C@H]1C(=O)O)C(=O)O`, with 1.5 nM.
On the same count and under the same terms, then `C[C@H](N[C@@H](Cc1ccccc1)C(=O)O)C(=O)N1C(=O)N(Cc2ccccc2)C[C@H]1C(=O)O`, with 11 nM.
`CCCCCCCC[C@H](N[C@@H](CC)C(=O)N1C(=O)N(Cc2ccccc2)C[C@H]1C(=O)O)C(=O)O` registered an IC50 in test [2] of 2.1 nM.
As for `CCCCCCCC[C@H](N[C@@H](CC)C(=O)N1C(=O)N(C)C[C@H]1C(=O)O)C(=O)O`, the IC50 in test [1] was found to be 2.4 nM.
In turn, `C[C@H](N[C@@H](CCc1ccccc1)C(=O)O)C(=O)N1C(=O)N(Cc2ccccc2)C[C@H]1C(=O)O` showed an IC50 in test [1] of 1.7 nM.
`C[C@H](N)C(=O)N1C(=O)N(Cc2ccccc2)C[C@H]1C(=O)O`: in test [2], the IC50 was 1500 nM.
Regarding `CC(C)CC[C@H](N[C@@H](C)C(=O)N1C(=O)N(Cc2ccccc2)C[C@H]1C(=O)O)C(=O)O`, the IC50 in test [1] worked out at 3.3 nM.
`CCCCCCCC[C@H](N[C@@H](C)C(=O)N1C(=O)N(Cc2ccccc2)C[C@H]1C(=O)O)C(=O)OCC` returned an IC50 in test [1] of 2200 nM.
The same measure, in the same setting: then `CCOC(=O)[C@H](CCc1ccccc1)N[C@@H](C)C(=O)N1C(=O)N(Cc2ccccc2)C[C@H]1C(=O)O`, with 7900 nM; and `CCCCCCCC[C@H](N[C@@H](C)C(=O)N1C(=O)N(C)C[C@H]1C(=O)O)C(=O)OCC`, with 5100 nM.

By IC50 is commonly meant the concentration at which inhibition is half-maximal. A higher IC50 goes with weaker potency.
